System: MCF-7 xenograft
Experiment: MCF-7 breast cancer xenograft
Format: in vivo, nude mice
Details: MCF-7, 2 × 3 wk, 19 d
Method: In vivo efficacy studies were conducted as monotherapy, or a combination therapy with standard of care treatments in nude mice bearing human melanoma xenografts; MDA-MB-435S.luc (s.c.), human breast cancer xenografts MCF-7 (estrogen receptor alpha positive), human ovarian cancer xenografts; OVCAR-3, (s.c.), human prostate cancer xenografts; PC-3 (androgen receptor negative).
Mice were sacrificed one week after the last injection and blood collected for chemistry panel, tumor weights and body weights were recorded. Part of the tumors were fixed in PBS buffered 10% formalin for histological evaluation.

## KFAKFAKKFAKFAKKFAKQHWSYGLRPG [Phor18-LHRH]
  Median Tumor Weight vs Saline P < 0.05 (dose, growth delay): 0.02 mg/kg

Source: patent publication US20240228542A1, “LYTIC DOMAIN FUSION CONSTRUCTS, CHECKPOINT INHIBITORS, AND METHODS OF MAKING AND USING SAME” (A28 Therapeutics Inc., priority 2020, published 2024)
